This passage reports solubility results from patent US10272090B1, “Liquid pharmaceutical composition comprising pemetrexed” (SYNTHON B.V., priority 2014, dated 2019).

The series is described as follows: Solubility / precipitation of pemetrexed diacid in aqueous solution depending on pH. Format: physicochemical. The following applies: aqueous solutions with neutral or acidic pH.

On to `Nc1nc2[nH]cc(CCc3ccc(C(=O)N[C@@H](CCC(=O)O)C(=O)O)cc3)c2c(=O)[nH]1` [pemetrexed diacid, N-[4-[2-(2-amino-4,7-dihydro-4-oxo-1H-pyrrolo[2,3-d]pyrimidin-5-yl)ethyl]benzoyl]-L-glutamic acid], for which the solubility entry is “very low”.
